Results from article PMC2934701 (The Journal of Biological Chemistry, 2010).
Changes are numbered by the printed parent chain.

Tests used:
Assay in all cases: Fluo-4 calcium assay, HEK293T + Galpha16gust44
Type in all cases: cell-based
[1] = target: T1, hTAS2R16 (ssr3-hTAS2R16) (Homo sapiens, UniProt Q9NYV7, F93T)
T1 sequence (Q9NYV7 1-291 F93T): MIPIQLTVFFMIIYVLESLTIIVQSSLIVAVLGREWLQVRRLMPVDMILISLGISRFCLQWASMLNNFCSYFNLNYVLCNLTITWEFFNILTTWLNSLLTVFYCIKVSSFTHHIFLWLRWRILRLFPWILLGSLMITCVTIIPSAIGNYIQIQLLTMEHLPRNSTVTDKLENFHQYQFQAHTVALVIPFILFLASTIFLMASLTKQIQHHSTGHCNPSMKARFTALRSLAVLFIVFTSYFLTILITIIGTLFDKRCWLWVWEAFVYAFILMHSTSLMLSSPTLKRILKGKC

[2] = target: T2, hTAS2R16 (ssr3-hTAS2R16) (Homo sapiens, UniProt Q9NYV7, I243L)
T2 sequence (Q9NYV7 1-291 I243L): T1 sequence (Q9NYV7 1-291 F93T) with T93F, I243L

[3] = target: T3, hTAS2R16 (ssr3-hTAS2R16) (Homo sapiens, UniProt Q9NYV7, Q177N)
T3 sequence (Q9NYV7 1-291 Q177N): T1 sequence (Q9NYV7 1-291 F93T) with T93F, Q177N

[4] = target: T4, hTAS2R16 (ssr3-hTAS2R16) (Homo sapiens, UniProt Q9NYV7, H181T)
T4 sequence (Q9NYV7 1-291 H181T): T1 sequence (Q9NYV7 1-291 F93T) with T93F, H181T

Which EC50 [1] does the source give for `OCc1ccccc1O[C@@H]1O[C@H](CO)[C@@H](O)[C@H](O)[C@H]1O` [salicin] here?
The EC50 was 12000 µM.

And the EC50 [2]?
Its EC50 is 500 µM.

And the EC50 [3]?
The EC50 was 390 µM.

What about the EC50 [4] of the same compound?
The EC50 was 1840 µM.
